Test system: Plasmodium falciparum
Assay: Antimalarial activity against Plasmodium falciparum K1 by [3H]hypoxanthine uptake
Type: functional, organism-based

SMILES | EC50
Oc1ccc(-c2cc3cc4c(cc3o2)OCO4)c(O)c1 | 100 µM
Oc1ccc2c(c1)OC[C@@H]1c3cc4c(cc3O[C@H]21)OCO4 [(+)-MAACKIAIN] | 165 µM
COc1c(Cc2ccccc2O)c(O)c(Cc2ccccc2O)c(O)c1C(=O)CCc1ccccc1 [DIUVARETIN] | 4.2 µg/mL
C=C(C)[C@H](CC=C(C)C)Cc1c(O)cc(O)c2c1O[C@H](c1c(O)cccc1O)CC2=O [EXIGUAFLAVONE A] | 10.8 µM
C=C(C)[C@H](CC=C(C)C)Cc1c(OC)cc(O)c2c1O[C@H](c1c(O)cccc1O)CC2=O [EXIGUAFLAVONE B] | 16 µM
COc1cc(O)c(Cc2ccccc2O)c(O)c1C(=O)CCc1ccccc1 [UVARETIN] | 3.49 µg/mL
